Experimental data published in patent publication US7799821B2, “Therapeutic compounds” (Allergan, Inc., priority 2004, dated 2010).

Tests used:
hEP2/Gqs5 = biological target: T1, hEP2/Gqs5 (Homo sapiens, UniProt P43116); experiment: FLIPR calcium signal, hEP2; format: cell-based; settings: FLIPR Ca2+ signal, HEK-293(EBNA); read-out: FUNCTIONAL EC50 HEP2
T1 construct: expressed in transfected cells; host or cells: HEK-293(EBNA)
Experimental: (§1) HEK-293(EBNA) cells, stably expressing one type or subtype of recombinant human prostaglandin receptors (prostaglandin receptors expressed: hDP/Gqs5; hEP1; hEP2/Gqs5; hEP3A/Gqi5; hEP4/Gqs5; hFP; hIP; hTP), were cultured in 100 mm culture dishes in high-glucose DMEM medium containing 10% fetal bovine serum, 2 mM 1-glutamine, 250 μg/ml geneticin (G418) and 200 μg/ml hygromycin B as selection markers, and 100 units/ml penicillin G, 100 μg/ml streptomycin and 0.25 μg/ml amphotericin B. • (b) Calcium Signal Studies on the FLIPR™
(§2) Cells were seeded at a density of 5×10^4 cells per well in Biocoat® Poly-D-lysine-coated black-wall, clear-bottom 96-well plates (Becton-Dickinson) and allowed to attach overnight in an incubator at 37° C. Cells were then washed two times with HBSS-HEPES buffer (Hanks Balanced Salt Solution without bicarbonate and phenol red, 20 mM HEPES, pH 7.4) using a Denley Cellwash plate washer (Labsystems). After 45 minutes of dye-loading in the dark, using the calcium-sensitive dye Fluo-4 AM at a final concentration of 2 μM, plates were washed four times with HBSS-HEPES buffer to remove excess dye leaving 100 μl in each well. Plates were re-equilibrated to 37° C. for a few minutes.
(§3) Cells were excited with an Argon laser at 488 nm, and emission was measured through a 510-570 nm bandwidth emission filter (FLIPR™, Molecular Devices, Sunnyvale, Calif.). Drug solution was added in a 50 μl volume to each well to give the desired final concentration. The peak increase in fluorescence intensity was recorded for each well. On each plate, four wells each served as negative (HBSS-HEPES buffer) and positive controls (standard agonists: BW245C (hDP); PGE2 (hEP1; hEP2/Gqs5; hEP3A/Gqi5; hEP4/Gqs5); PGF2α (hFP); carbacyclin (hIP); U-46619 (hTP), depending on receptor). The peak fluorescence change in each drug-containing well was then expressed relative to the controls.
(§4) Compounds were tested in a high-throughput (HTS) or concentration-response (CoRe) format. In the HTS format, forty-four compounds per plate were examined in duplicates at a concentration of 10^−5 M. To generate concentration-response curves, four compounds per plate were tested in duplicates in a concentration range between 10^−5 and 10^−11 M. The duplicate values were averaged. In either, HTS or CoRe format each compound was tested on at least 3 separate plates using cells from different passages to give an n≧3.

hEP4/Gqs5 = biological target: T2, hEP4/Gqs5 (Homo sapiens, UniProt P35408); experiment: FLIPR calcium signal, hEP4; format: cell-based; settings: FLIPR Ca2+ signal, HEK-293(EBNA); read-out: FUNCTIONAL EC50 HEP4
T2 construct: expressed in transfected cells; host or cells: HEK-293(EBNA)
Experimental: as §1, §2, §3, §4

human EP2 receptors = biological target: T3, human EP2 receptors (Homo sapiens, UniProt P43116); experiment: Competition radioligand binding ([3H]PGE2), EP2; settings: read-out: BINDING IC50 HEP2
T3 construct: expressed in transfected cells; host or cells: HEK 293
Experimental: Competition binding experiments were performed in a medium containing Hank's balanced salt solution, […], membranes (˜60 μg protein) or 2×10^5 cells from HEK 293 cells stably expressing human EP2 receptors, [^3H]PGE2 (10 nM) and various concentrations of test compounds in a total volume of 300 μl. Reaction mixtures were incubated at 23° C. for 60 min, and were filtered over Whatman GF/B filters under vacuum. Filters were washed three times with 5 ml ice-cold buffer containing 50 mM Tris/HCl (pH 7.3). Non-specific binding was estimated in the presence of excess unlabeled PGE2 (10 μM). Binding data fitted to the binding model for a single class of binding sites, using nonlinear regression analysis. IC50 values thus obtained were converted to Ki using the equation of Ki=(IC50/(1+[L]/KD) where [L] represents PGE2 concentration (10 nM) and KD the dissociation constant for [^3H]PGE2 at human EP2 receptors (40 nM).
HEK-293 cells stably expressing the human or feline FP receptor, or EP1, EP2, or EP4 receptors were washed with TME buffer, scraped from the bottom of the flasks, and homogenized for 30 sec using a Brinkman PT 10/35 polytron. TME buffer was added to achieve a final 40 ml volume in the centrifuge tubes (the composition of TME is 100 mM TRIS base, 20 mM MgCl2, […]; 10N HCl is added to achieve a pH of 7.4).
The cell homogenate was centrifuged at 19000 r.p.m. for 20 min at 4° C. using a Beckman Ti-60 rotor. The resultant pellet was resuspended in TME buffer to give a final 1 mg/ml protein concentration, as determined by Biorad assay. Radioligand binding competition assays vs. [^3H-]17 —phenyl PGF2α (5 nM) were performed in a 100 μl volume for 60 min. Binding reactions were started by adding plasma membrane fraction. The reaction was terminated by the addition of 4 ml ice-cold TRIS-HCl buffer and rapid filtration through glass fiber GF/B filters using a Brandel cell harvester. The filters were washed 3 times with ice-cold buffer and oven dried for one hour.
[^3H-] PGE2 (specific activity 180 Ci mmol) was used as the radioligand for EP receptors. [^3H] 17-phenyl PGF2α was employed for FP receptor binding studies. Binding studies employing EP1, EP2, EP4 and FP receptors were performed in duplicate in at least three separate experiments. A 200 μl assay volume was used. Incubations were for 60 min at 25° C. and were terminated by the addition of 4 ml of ice-cold 50 mM TRIS-HCl, followed by rapid filtration through Whatman GF/B filters and three additional 4 ml washes in a cell harvester (Brandel). Competition studies were performed using a final concentration of 5 nM [^3H]—PGE2, or 5 nM [^3H] 17-phenyl PGF2α and non-specific binding determined with 10^−5M of unlabeled PGE2, or 17-phenyl PGF2α, according to receptor subtype studied.

T3 sequence (P43116 whole entry): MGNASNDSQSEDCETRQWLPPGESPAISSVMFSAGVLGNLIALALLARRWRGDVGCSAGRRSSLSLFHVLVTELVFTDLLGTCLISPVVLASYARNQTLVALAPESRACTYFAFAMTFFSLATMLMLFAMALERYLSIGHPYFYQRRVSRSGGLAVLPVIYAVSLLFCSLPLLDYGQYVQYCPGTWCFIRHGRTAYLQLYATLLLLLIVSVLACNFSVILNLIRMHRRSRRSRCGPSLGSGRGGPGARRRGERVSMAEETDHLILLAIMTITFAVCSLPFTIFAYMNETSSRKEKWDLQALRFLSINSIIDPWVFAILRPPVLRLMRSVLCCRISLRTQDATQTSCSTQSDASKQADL
T1 sequence (P43116 whole entry): as above
T2 sequence (P35408 whole entry): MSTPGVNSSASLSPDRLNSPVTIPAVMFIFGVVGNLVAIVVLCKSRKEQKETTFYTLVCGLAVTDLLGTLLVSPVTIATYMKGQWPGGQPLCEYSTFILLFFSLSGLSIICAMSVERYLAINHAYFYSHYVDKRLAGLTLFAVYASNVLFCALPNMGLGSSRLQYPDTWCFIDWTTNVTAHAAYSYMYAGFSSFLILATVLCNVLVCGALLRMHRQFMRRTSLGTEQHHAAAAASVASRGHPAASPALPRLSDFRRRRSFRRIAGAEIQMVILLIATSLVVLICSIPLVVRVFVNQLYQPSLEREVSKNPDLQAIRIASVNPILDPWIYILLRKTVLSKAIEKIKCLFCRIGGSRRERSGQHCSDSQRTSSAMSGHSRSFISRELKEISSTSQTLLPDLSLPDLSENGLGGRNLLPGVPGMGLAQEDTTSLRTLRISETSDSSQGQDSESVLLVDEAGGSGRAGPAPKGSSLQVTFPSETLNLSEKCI

| Compound | EC50 (hEP2/Gqs5) | EC50 (hEP4/Gqs5) | IC50 (human EP2 receptors) |
| --- | --- | --- | --- |
| CCCC1(C(O)c2cccc([C@H]3[C@H](O)CC(=O)[C@@H]3CCCCCCC(=O)O)c2)CCC1 (stereo partly drawn) | 5.26 µM | – | – |
| CCCC1(C(O)c2ccc([C@H]3[C@H](O)CC(=O)[C@@H]3C/C=C\CCCC(=O)O)cc2)CCC1 (stereo partly drawn) | 3.72 µM | – | – |
| CCCC1(C(O)c2ccc([C@@H]3[C@@H](CCCCCCC(=O)O)[C@H](Cl)C[C@H]3O)cc2)CCC1 (stereo partly drawn) | 0.546 µM | – | – |
| COC(=O)CCCCCC[C@@H]1[C@@H](c2ccc(C(C)(C)C)cc2)[C@H](O)C[C@H]1Cl | > 10 µM | – | – |
| COC(=O)CCC/C=C\C[C@H]1C(=O)C[C@@H](O)[C@@H]1c1ccc(C(O)C2CCCCC2)cc1 (stereo partly drawn) | > 10 µM | > 10 µM | – |
| O=C(O)CCC/C=C\C[C@H]1C(=O)C[C@@H](O)[C@@H]1c1ccc(C(O)C2CCCCC2)cc1 (stereo partly drawn) | > 10 µM | – | – |
| COC(=O)CCCCCC[C@H]1C(=O)C[C@@H](O)[C@@H]1c1ccc(C(O)C2CCCCC2)cc1 (stereo partly drawn) | > 10 µM | – | – |
| O=C(O)CCCCCC[C@H]1C(=O)C[C@@H](O)[C@@H]1c1ccc(C(O)C2CCCCC2)cc1 (stereo partly drawn) | 0.45 µM | – | – |
| CCCC1(C(O)c2cccc([C@@H]3[C@@H](Cc4cccc(OCC(=O)O)c4)[C@H](Cl)C[C@H]3O)c2)CCC1 (stereo partly drawn) | 0.266 µM | – | 5.2 µM |
| O=C(O)COC/C=C\C[C@@H]1[C@@H](c2ccc(C(O)C3CCCCC3)cc2)[C@H](O)C[C@H]1Cl (stereo partly drawn) | 3.84 µM | – | – |
| O=C(O)COCC#CCC1[C@H](Cl)C[C@@H](O)[C@@H]1c1ccc(C(O)C2CCCCC2)cc1 (stereo partly drawn) | 1.55 µM | – | – |
| O=C(O)CCC/C=C\C[C@H]1C(=O)C[C@@H](O)[C@@H]1c1ccc2c(c1)CCC2O (stereo partly drawn) | 0.405 µM | – | 2.28 µM |
| O=C(O)CCC/C=C\C[C@H]1C(=O)C[C@@H](O)[C@@H]1c1ccc(C2(O)CCC2)cc1 | > 10 µM | – | – |
| COC(=O)CCC/C=C\C[C@@H]1[C@@H](c2ccc(C3(O)CCC3)cc2)[C@H](O)C[C@H]1Cl | > 10 µM | – | – |
| CC(C)(CO)c1ccc([C@H]2[C@H](O)CC(=O)[C@@H]2CCCCCCC(=O)O)cc1 | 0.526 µM | – | 18.7 µM |

Continued, values first:

| EC50 (hEP2/Gqs5) | EC50 (hEP4/Gqs5) | IC50 (human EP2 receptors) | Compound |
| --- | --- | --- | --- |
| > 10 µM | > 10 µM | – | CCCC1(C(O)c2cccc([C@H]3[C@H](O)CC(=O)[C@@H]3C/C=C\CCCC(=O)NCC)c2)CCC1 (stereo partly drawn) |
| > 10 µM | – | – | CCCC1(C(O)c2ccc([C@H]3[C@H](O)CC(=O)[C@@H]3CCCCCCC(=O)OC)cc2)CCC1 (stereo partly drawn) |
| > 10 µM | – | – | CCCC1(C(O)c2ccc([C@@H]3[C@@H](C/C=C\CCCC(=O)OC)[C@H](Cl)C[C@H]3O)cc2)CCC1 (stereo partly drawn) |
| 0.635 µM | – | – | CCCC1(C(O)c2ccc([C@H]3[C@H](O)CC(=O)[C@@H]3CCCCCCC(=O)O)cc2)CCC1 (stereo partly drawn) |
| 2.27 µM | – | – | CCCC1(C(O)c2ccc([C@@H]3[C@@H](C/C=C\CCCC(=O)O)[C@H](Cl)C[C@H]3O)cc2)CCC1 (stereo partly drawn) |
| 2.81 µM | – | – | O=C(O)CCCCCC[C@@H]1[C@@H](c2ccc(C(O)C3CCCCC3)cc2)[C@H](O)C[C@H]1Cl (stereo partly drawn) |
| 20.8 µM | – | – | O=C(O)COCCCC[C@@H]1[C@@H](c2ccc(C(O)C3CCCCC3)cc2)[C@H](O)C[C@H]1Cl (stereo partly drawn) |
